Here are results for one compound from patent US8541197B2 (priority 2006, dated 2013).

Test [1] deals with ROS produced by the worms. The conditions noted are these: worms on mutant or wild-type yeast with E. coli, treated with DPI; expected result of a planned test.
Source text: a) Peroxidase enzyme activity: A commercially available assay (Amplex Red peroxidase kit, Molecular Probes) will be used to test peroxidase activity (20). Briefly, ROS produced by the worms, presumably in response to pathogenic attack, oxidize the substrate Amplex Red, to form a red fluorescent product that can be measured spectrophotometrically.
Briefly, worms reared on mixed cultures of mutant or wild-type yeast with E. coli will be treated with DPI.
A further test deals with C. elegans. The note with it: worms on mutant or wild-type yeast with E. coli, treated with DPI; expected result of a planned test.

Source text for C. elegans: The worms are carefully monitored twice a day from the time the eggs are exposed to the microbial cultures up to day 4, when the Dar phenotype is clearly visible. […] At day 4, the anal swelling (or Dar) phenotype is scored for worms plated on mixed lawns of E. coli and yeast and compared to worms plated on E. coli lawns without yeast or with heat inactivated yeast.
Briefly, worms reared on mixed cultures of mutant or wild-type yeast with E. coli will be treated with DPI. Its effect on the nematode host will be observed phenotypically (using the Dar phenotype described in Preliminary studies) and biochemically (using the peroxidase assay described in Specific Aim 1B).

As to `O=S(=O)([O-])[O-].c1ccc2c(c1)[I+]c1ccccc1-2.c1ccc2c(c1)[I+]c1ccccc1-2` [DPI, Diphenylene iodonium sulfate], the peroxidase activity result in test [1] is on record as “low peroxidase activity”. Besides, the Dar phenotype result in the test with C. elegans is “expect to observe the Dar phenotype”.
